We go through 10 compounds from PubChem BioAssay (NCI).

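Five concentrations, 48 hours, 96-well plates. Abbreviation: GI50, concentration required for 50% inhibition of growth. Definition used: TGI = concentration required for complete inhibition of growth.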

Some test systems named below: HS 578T breast; MDA-N; DU-145 prostate; MCF7 breast; OVCAR-3 ovarian; MDA-MB-231 breast; SNB-78 CNS; DMS 114 small cell lung; DMS 273 small cell lung; DLD-1 colon; KM20L2 colon.
Assay in all cases: DTP human tumour cell line panel, 48 h

On to `CN(CCO)CCC1COc2ccccc2O1` (centres undefined), for which the TGI in the assay with HS 578T breast, with MDA-N, with DU-145 prostate, in the assay on MCF7 breast, in the assay on OVCAR-3 ovarian and with MDA-MB-231 breast was above 10 µM in each case.

For the compound `N#C[S-].[Ce+3].c1ccc(-c2ccccn2)nc1.c1ccc(-c2ccccn2)nc1.c1ccc(-c2ccccn2)nc1`, the GI50 – broadly, the concentration giving 50% growth inhibition – in the assay with SNB-78 CNS is 58.3 µM; in the assay with DMS 114 small cell lung, 23.9 µM; in the assay on DMS 273 small cell lung, 11 µM; in the assay on OVCAR-3 ovarian it was 43.1 µM; in the assay on DLD-1 colon, 5.26 µM. Further, the TGI (as a rule, the concentration at which net growth stops) is above 100 µM in the assay on SNB-78 CNS; 78.8 µM in the assay on DMS 114 small cell lung; 33.9 µM in the assay with DMS 273 small cell lung; above 100 µM in the assay with OVCAR-3 ovarian; above 100 µM in the assay with DLD-1 colon.

Take `COC1=CC(c2ccc[nH]2)=N/C1=C\c1[nH]c(C)c(CC(=O)NCc2ccccc2)c1C`: in the assay with DU-145 prostate, the GI50 was 1.39 µM and the TGI amounted to 2.82 µM. Besides, in the assay with OVCAR-3 ovarian, the GI50 was 1.46 µM and the TGI was found to be 2.91 µM.

On to `COc1nc2ccc(Cl)c(C(O)c3ccccc3)c2nc1OC` (centres undefined), for which the concentration for total growth inhibition (TGI) in the assay on HS 578T breast is 38.9 µM; with MDA-N, 54.8 µM; in the assay with DU-145 prostate, above 100 µM; with MCF7 breast it was 87.6 µM; with OVCAR-3 ovarian it was 69.6 µM; in the assay with MDA-MB-231 breast, 39.9 µM.

For `N/C(=C\c1ccc(/C=C(\NC(=O)c2ccccc2)c2nc3c([nH]2)C(=O)c2ccccc2C3=O)cc1)c1nc2c([nH]1)C(=O)c1ccccc1C2=O`, the TGI in the assay with SNB-78 CNS is 63.1 µM; with DMS 114 small cell lung it was 22.9 µM; in the assay with DMS 273 small cell lung, 42.1 µM; with OVCAR-3 ovarian it was 57.3 µM; in the assay on KM20L2 colon it was 36.2 µM; in the assay with DLD-1 colon, 33 µM.

In the case of `COC(Cc1cc(C(O)(c2ccc(C(C)(C)C)cc2)c2cc(CC(OC)(c3cc(C(OC)(c4ccc(C(C)(C)C)cc4)c4ccc(C(C)(C)C)cc4)c(C)cc3C)c3cc(C(OC)(c4ccc(C(C)(C)C)cc4)c4ccc(C(C)(C)C)cc4)c(C)cc3C)c(C)cc2C)c(C)cc1C)(c1cc(C(OC)(c2ccc(C(C)(C)C)cc2)c2ccc(C(C)(C)C)cc2)c(C)cc1C)c1cc(C(OC)(c2ccc(C(C)(C)C)cc2)c2ccc(C(C)(C)C)cc2)c(C)cc1C`, the TGI in the assay on HS 578T breast, in the assay with MDA-N, in the assay with DU-145 prostate, in the assay with MCF7 breast, in the assay with OVCAR-3 ovarian and with MDA-MB-231 breast was above 75 µM throughout.

Regarding `N#CC1(C#N)C(=O)c2ccncc2C1=O`, the TGI in the assay on HS 578T breast, in the assay on MDA-N, in the assay with DU-145 prostate, in the assay with MCF7 breast, in the assay with OVCAR-3 ovarian and with MDA-MB-231 breast was above 100 µM each time.

For the compound `COc1cc(/C=C2\C(=O)Nc3ccc(Cl)cc32)cc(OC)c1OC`, the GI50 is 16.5 µM in the assay on HS 578T breast, 26 µM in the assay on MCF7 breast, 19.6 µM in the assay with OVCAR-3 ovarian and 11.4 µM in the assay on MDA-MB-231 breast. Further, the TGI was above 100 µM with HS 578T breast, above 100 µM in the assay with MCF7 breast, above 100 µM in the assay with OVCAR-3 ovarian and 37.3 µM in the assay on MDA-MB-231 breast.

`CCCC[n+]1ccn(-c2nc3ccccc3n2C)c1`: the TGI in the assay with SNB-78 CNS, with DMS 114 small cell lung, in the assay on DMS 273 small cell lung, in the assay with OVCAR-3 ovarian, with KM20L2 colon and with DLD-1 colon was above 100 µM in each case.

For the compound `C/C=C(\C)C(=O)OC1C2C(C)=CC(=O)C(O)C2(C)C2C3(O)OCC24C1OC(=O)C(OC(C)=O)C4C(C)C3O` (centres undefined), the total growth inhibition concentration (TGI) in the assay on SNB-78 CNS was determined as 0.141 µM; in the assay on DMS 114 small cell lung it was 0.0409 µM; with DMS 273 small cell lung it was 0.0382 µM; in the assay on OVCAR-3 ovarian, 0.0496 µM; in the assay on KM20L2 colon, 0.795 µM; with DLD-1 colon, 0.078 µM.
